Measured values reported in patent publication US8822503B2, “2-pyridone compounds” (Taisho Pharmaceutical Co., Ltd, priority 2009, dated 2014).

target: T1, human liver GK (Homo sapiens, UniProt P35557); experiment: GK activation test; type: biochemical; settings: test compound concentration needed to activate 50% of maximum activation ability; 4 mM 14C-labeled glucose, 2 mM ATP, room temperature, 20 minutes
T1 construct: GST (glutathione S-transferase) (N); made in house; host or cells: E. coli
T1 sequence (P35557 1-466 isoform P35557-2): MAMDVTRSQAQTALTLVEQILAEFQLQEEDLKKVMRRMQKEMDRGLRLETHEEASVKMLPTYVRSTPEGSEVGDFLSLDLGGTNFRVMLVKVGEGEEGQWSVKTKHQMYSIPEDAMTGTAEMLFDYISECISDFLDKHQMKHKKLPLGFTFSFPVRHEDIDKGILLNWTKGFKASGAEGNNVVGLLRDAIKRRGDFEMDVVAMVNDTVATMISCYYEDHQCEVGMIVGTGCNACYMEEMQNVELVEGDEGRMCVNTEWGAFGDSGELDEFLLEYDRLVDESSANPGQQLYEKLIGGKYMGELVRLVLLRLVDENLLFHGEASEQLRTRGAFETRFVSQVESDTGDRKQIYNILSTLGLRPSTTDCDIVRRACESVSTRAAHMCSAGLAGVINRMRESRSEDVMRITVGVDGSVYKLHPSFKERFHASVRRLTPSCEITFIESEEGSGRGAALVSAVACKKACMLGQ
Method in brief: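 GST-tagged human liver GK from E. coli (0.24 μg/well) with 4 mM 14C-glucose, 2 mM ATP in Hepes-KOH pH 7.1, KCl, MgCl2, DTT, 1% DMSO, 20 min room temperature. Labeled glucose 6-phosphate captured on anion resin, eluted and counted. EC50 = concentration giving half of maximal activation.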

SMILES | EC50 [µM]
O=C1CC[C@H](/C=C(/c2ccc(Cl)c(=O)[nH]2)c2cccc3ccccc23)N1 [Example 4-150, 3-Chloro-6-{(E)-1-(naphthalen-1-yl)-2-[(2R)-5-oxopyrrolidin-2-yl]ethenyl}pyridin-2(1H)-one] | 3 to 10
O=C1CC[C@H](/C=C(\c2ccc(-c3ccccc3)cc2)c2ccc(Cl)c(=O)[nH]2)N1 [Example 4-151, 6-{(E)-1-(Biphenyl-4-yl)-2-[(2R)-5-oxopyrrolidin-2-yl]ethenyl}-3-chloropyridin-2(1H)-one] | 0.5 to 3
O=C1CC[C@H](/C=C(\c2ccc(Oc3ccccc3)cc2)c2ccc(Cl)c(=O)[nH]2)N1 [Example 4-152, 3-Chloro-6-[(E)-2-[(2R)-5-oxopyrrolidin-2-yl]-1-(4-phenoxyphenyl)ethenyl]pyridin-2(1H)-one] | 0.01 to 0.5
NC(=O)c1cccc(/C(=C\[C@H]2CCC(=O)N2)c2ccc(Cl)c(=O)[nH]2)c1 [Example 4-153, 3-{(E)-1-(5-Chloro-6-oxo-1,6-dihydropyridin-2-yl)-2-[(2R)-5-oxopyrrolidin-2-yl]ethenyl}benzamide] | 3 to 10
O=C1CC[C@H](/C=C(\c2ccc(OCc3ccccc3)cc2)c2ccc(Cl)c(=O)[nH]2)N1 [Example 4-154, 6-{(E)-1-[4-(Benzyloxy)phenyl]-2-[(2R)-5-oxopyrrolidin-2-yl]ethenyl}-3-chloropyridin-2(1H)-one] | 0.5 to 3
CS(=O)(=O)Nc1ccc(/C(=C\[C@H]2CCC(=O)N2)c2ccc(Cl)c(=O)[nH]2)cc1 [Example 4-155, N-(4-{(E)-1-(5-Chloro-6-oxo-1,6-dihydropyridin-2-yl)-2-[(2R)-5-oxopyrrolidin-2-yl]ethenyl}phenyl)methanesulfonamide] | 0.5 to 3
CC(C)NC(=O)Nc1ccc(/C(=C\[C@H]2CCC(=O)N2)c2ccc(Cl)c(=O)[nH]2)cc1 [Example 4-156, 1-(4-{(E)-1-(5-Chloro-6-oxo-1,6-dihydropyridin-2-yl)-2-[(2R)-5-oxopyrrolidin-2-yl]ethenyl}phenyl)-3-propan-2-ylurea] | 3 to 10
CS(=O)(=O)c1cc(/C(=C\[C@H]2CCC(=O)N2)c2ccc(Cl)c(=O)[nH]2)ccc1C(F)F [Example 4-157, 3-Chloro-6-{(E)-1-[4-(difluoromethyl)-3-(methylsulfonyl)phenyl]-2-[(2R)-5-oxopyrrolidin-2-yl]ethenyl}pyridin-2(1H)-one] | 3 to 10
C[S+]([O-])c1ccc(/C(=C\[C@H]2CCC(=O)N2)c2ccc(Cl)c(=O)[nH]2)cc1 (stereo partly drawn) [Example 4-158, 3-Chloro-6-{(E)-1-[4-(methylsulfinyl)phenyl]-2-[(2R)-5-oxopyrrolidin-2-yl]ethenyl}pyridin-2(1H)-one] | 3 to 10
CNC(=O)c1ccc(/C(=C\[C@H]2CCC(=O)N2)c2ccc(Cl)c(=O)[nH]2)cc1 [Example 4-159, 4-{(E)-1-(5-Chloro-6-oxo-1,6-dihydropyridin-2-yl)-2-[(2R)-5-oxopyrrolidin-2-yl]ethenyl}-N-methylbenzamide] | 3 to 10
NC(=O)c1ccc(/C(=C\[C@H]2CCC(=O)N2)c2ccc(Cl)c(=O)[nH]2)cc1 [Example 4-160, 4-{(E)-1-(5-Chloro-6-oxo-1,6-dihydropyridin-2-yl)-2-[(2R)-5-oxopyrrolidin-2-yl]ethenyl}benzamide] | 3 to 10
CN(C)C(=O)c1ccc(/C(=C\[C@H]2CCC(=O)N2)c2ccc(Cl)c(=O)[nH]2)cc1 [Example 4-161, 4-{(E)-1-(5-Chloro-6-oxo-1,6-dihydropyridin-2-yl)-2-[(2R)-5-oxopyrrolidin-2-yl]ethenyl}-N,N-dimethylbenzamide] | 3 to 10
CC(C)(C)c1ccc(/C(=C\[C@H]2CCC(=O)N2)c2ccc(Cl)c(=O)[nH]2)c(O)c1 [Example 4-162, 6-{(E)-1-(4-tert-Butyl-2-hydroxyphenyl)-2-[(2R)-5-oxopyrrolidin-2-yl]ethenyl}-3-chloropyridin-2(1H)-one] | 0.01 to 0.5
CC(=O)Nc1cccc(/C(=C\[C@H]2CCC(=O)N2)c2ccc(Cl)c(=O)[nH]2)c1 [Example 4-163, N-(3-{(E)-1-(5-Chloro-6-oxo-1,6-dihydropyridin-2-yl)-2-[(2R)-5-oxopyrrolidin-2-yl]ethenyl}phenyl)acetamide] | 3 to 10
CC(C)(C)c1ccc(/C(=C\[C@H]2CCC(=O)N2)c2ccc(OC(F)F)c(=O)[nH]2)cc1 [Example 4-165, 6-{(E)-1-(4-tert-Butylphenyl)-2-[(2R)-5-oxopyrrolidin-2-yl]ethenyl}-3-(difluoromethoxy)pyridin-2(1H)-one] | 0.01 to 0.5
CC(C)Oc1ccc(/C(=C/[C@H]2CCC(=O)N2)c2ccc(C(C)(C)C)cc2)[nH]c1=O [Example 4-166, 6-{(E)-1-(4-tert-Butylphenyl)-2-[(2R)-5-oxopyrrolidin-2-yl]ethenyl}-3-(propan-2-yloxy)pyridin-2(1H)-one] | 0.5 to 3

SMILES | EC50 [µM]
CCCOc1ccc(/C(=C/[C@H]2CCC(=O)N2)c2ccc(C(C)(C)C)cc2)[nH]c1=O [Example 4-167, 6-{(E)-1-(4-tert-Butylphenyl)-2-[(2R)-5-oxopyrrolidin-2-yl]ethenyl}-3-propoxypyridin-2(1H)-one] | 0.5 to 3
O=C1CC[C@H](/C=C(\c2ccc(C(F)(F)F)cc2)c2ccc(OC3CCCC3)c(=O)[nH]2)N1 [Example 4-168, 3-(Cyclopentyloxy)-6-{(E)-2-[(2R)-5-oxopyrrolidin-2-yl]-1-[4-(trifluoromethyl)phenyl]ethenyl}pyridin-2(1H)-one] | 0.5 to 3
O=C1CC[C@H](/C=C(\c2ccc(Cl)cc2)c2ccc(OCCCO)c(=O)[nH]2)N1 [Example 4-169, 6-{(E)-1-(4-Chlorophenyl)-2-[(2R)-5-oxopyrrolidin-2-yl]ethenyl}-3-(3-hydroxypropoxy)pyridin-2(1H)-one] | 3 to 10
O=C1CC[C@H](/C=C(\c2ccc(C(F)(F)F)cc2)c2ccc(OCCCO)c(=O)[nH]2)N1 [Example 4-170, 3-(3-Hydroxypropoxy)-6-{(E)-2-[(2R)-5-oxopyrrolidin-2-yl]-1-[4-(trifluoromethyl)phenyl]ethenyl}pyridin-2(1H)-one] | 3 to 10
CC(C)(CO)COc1ccc(/C(=C/[C@H]2CCC(=O)N2)c2ccc(C(F)(F)F)cc2)[nH]c1=O [Example 4-171, 3-(3-Hydroxy-2,2-dimethylpropoxy)-6-{(E)-2-[(2R)-5-oxopyrrolidin-2-yl]-1-[4-(trifluoromethyl)phenyl]ethenyl}pyridin-2(1H)-one] | 3 to 10
O=C1CC[C@H](/C=C(\c2ccc(C(F)(F)F)cn2)c2ccc(C3CC3)c(=O)[nH]2)N1 [Example 4-172, 3-Cyclopropyl-6-{(Z)-2-[(2R)-5-oxopyrrolidin-2-yl]-1-[5-(trifluoromethyl)pyridin-2-yl]ethenyl}pyridin-2(1H)-one] | 0.5 to 3
CC(C)(C)c1ccc(/C(=C\[C@H]2CCC(=O)N2)c2ccc(N)c(=O)[nH]2)cc1 [Example 4-173, 3-Amino-6-{(E)-1-(4-tert-butylphenyl)-2-[(2R)-5-oxopyrrolidin-2-yl]ethenyl}pyridin-2(1H)-one] | 0.5 to 3
CN(C)c1ccc(/C(=C/[C@H]2CCC(=O)N2)c2ccc(C(C)(C)C)cc2)[nH]c1=O [Example 4-174, 6-{(E)-1-(4-tert-Butylphenyl)-2-[(2R)-5-oxopyrrolidin-2-yl]ethenyl}-3-(dimethylamino)pyridin-2(1H)-one] | 0.01 to 0.5
CC(=O)c1ccc(/C(=C/[C@H]2CCC(=O)N2)c2ccc(C(C)(C)C)cc2)[nH]c1=O [Example 4-175, 3-Acetyl-6-{(E)-1-(4-tert-butylphenyl)-2-[(2R)-5-oxopyrrolidin-2-yl]ethenyl}pyridin-2(1H)-one] | 0.5 to 3
CCc1ccc(/C(=C/[C@H]2CCC(=O)N2)c2ccc(C(C)(C)C)cc2)[nH]c1=O [Example 4-176, 6-{(E)-1-(4-tert-Butylphenyl)-2-[(2R)-5-oxopyrrolidin-2-yl]ethenyl}-3-ethylpyridin-2(1H)-one] | 0.01 to 0.5
CC(C)(C)c1ccc(/C(=C\[C@H]2CCC(=O)N2)c2ccc(Br)c(=O)[nH]2)cc1 [Example 4-177, 3-Bromo-6-{(E)-1-(4-tert-butylphenyl)-2-[(2R)-5-oxopyrrolidin-2-yl]ethenyl}pyridin-2(1H)-one] | 0.01 to 0.5
CC(C)(C)c1ccc(/C(=C\[C@H]2CCC(=O)N2)c2ccc(-c3ccccc3)c(=O)[nH]2)cc1 [Example 4-178, 6-{(E)-1-(4-tert-Butylphenyl)-2-[(2R)-5-oxopyrrolidin-2-yl]ethenyl}-3-phenylpyridin-2(1H)-one] | 0.01 to 0.5
CC(C)(C)c1ccc(/C(=C\[C@H]2CCC(=O)N2)c2ccc(-c3ccncc3)c(=O)[nH]2)cc1 [Example 4-179, 6-{(E)-1-(4-tert-Butylphenyl)-2-[(2R)-5-oxopyrrolidin-2-yl]ethenyl}-3,4′-bipyridin-2(1H)-one] | 0.01 to 0.5
CC(C)(C)c1ccc(/C(=C\[C@H]2CCC(=O)N2)c2ccc(-c3cccnc3)c(=O)[nH]2)cc1 [Example 4-180, 6-{(E)-1-(4-tert-Butylphenyl)-2-[(2R)-5-oxopyrrolidin-2-yl]ethenyl}-3,3′-bipyridin-2(1H)-one] | 0.01 to 0.5
Cc1nc(C)c(-c2ccc(/C(=C/[C@H]3CCC(=O)N3)c3ccc(C(C)(C)C)cc3)[nH]c2=O)s1 [Example 4-181, 6-{(E)-1-(4-tert-Butylphenyl)-2-[(2R)-5-oxopyrrolidin-2-yl]ethenyl}-3-(2,4-dimethyl-1,3-thiazol-5-yl)pyridin-2(1H)-one] | 0.5 to 3
